We go through 29 molecules from patent US9878985B2, “Benzocyclobutane(thio) carboxamides” (BAYER CROPSCIENCE AKTIENGESELLSCHAFT, priority 2013, dated 2018).

The nature of the first data set: Log P by HPLC on reversed phase columns (EEC directive 79/831 Annex V.A8). Type of data set: physicochemical. The note with it: Table 1; method [a]: LC-UV, acidic range, 0.1% formic acid in water and acetonitrile. The procedure: Measurement of Log P values was performed according to EEC directive 79/831 Annex V.A8 by HPLC (High Performance Liquid Chromatography) on reversed phase columns with the following method: • [^a] Log P value is determined by measurement of LC-UV, in an acidic range, with 0.1% formic acid in water and acetonitrile as eluent (linear gradient from 10% acetonitrile to 95% acetonitrile). Calibration was done with straight-chain alkan2-ones (with 3 to 16 carbon atoms) with known Log P values (measurement of Log P values using retention times with linear interpolation between successive alkanones). Lambda-max-values were determined using UV-spectra from 200 nm to 400 nm and the peak values of the chromatographic signals.
Take `Cn1nc(C(F)F)c(C(=O)Nc2cccc3c2CC32CCCCC2)c1Cl` [Example I-07]: the LogP is 4.56^[a].

With `CC(C)C1Cc2c(NC(=O)c3cccnc3C(F)F)cccc21` (centres unmarked) [Example I-06], the LogP was 3.39^[a]. The same measure, in the same setting: to `CC(C)C1Cc2c(NC(=O)c3c(C(F)F)nn(C)c3Cl)cccc21` (centres unmarked) [Example I-16] belongs 4.06^[a]; to `O=C(Nc1cccc2c1CC2c1ccccc1)c1cccnc1C(F)F` (centres unmarked) [Example I-19], 3.06^[a]; to `Cn1nc(C(F)F)c(C(=O)Nc2cccc3c2CC3c2ccccc2)c1Cl` (centres unmarked) [Example I-11], 3.71^[a]. As to `Cn1nc(C(F)F)c(C(=O)Nc2cccc3c2CC32CCCC2)c1Cl` [Example I-21], the LogP was 4.14^[a]. As for `O=C(Nc1cccc2c1CC21CCCC1)c1cccnc1C(F)F` [Example I-09], the LogP was 3.46^[a]. For `CCC1(C)Cc2c(NC(=O)c3c(C(F)F)nn(C)c3Cl)cccc21` (centres unmarked) [Example I-12], the LogP is 3.96^[a]. On the same count and under the same terms, the result for `CCC1(CC)Cc2c(NC(=O)c3c(C(F)F)nn(C)c3F)cccc21` [Example I-14] reads 4.11^[a].

As to `CC1Cc2c(NC(=O)c3c(C(F)F)nn(C)c3F)cccc21` (centres unmarked) [Example I-15], the LogP was 3.02^[a].

For `Cn1cc(C(=O)Nc2cccc3c2CC3c2ccccc2)c(C(F)F)n1` (centres unmarked) [Example I-01], the LogP was 3.20^[a].

In the case of `O=C(Nc1cccc2c1CC21CCCCC1)c1cccnc1C(F)F` [Example I-17], the LogP is 3.80^[a]. The same measure, in the same setting: to `CCC1(C)Cc2c(NC(=O)c3cn(C)nc3C(F)F)cccc21` (centres unmarked) [Example I-13] belongs 3.44^[a]. For `CC(C)C1Cc2c(NC(=O)c3cn(C)nc3C(F)F)cccc21` (centres unmarked) [Example I-20], the LogP is 3.50^[a]. Still for that read-out and setting: to `Cn1cc(C(=O)Nc2cccc3c2CC32CCCC2)c(C(F)F)n1` [Example I-03] belongs 3.59^[a]; to `CCC1(CC)Cc2c(NC(=O)c3c(C(F)F)nn(C)c3Cl)cccc21` [Example I-04], 4.36^[a]; to `Cn1nc(C(F)F)c(C(=O)Nc2cccc3c2CC32CCCC2)c1F` [Example I-02], 3.90[a]. Still for that read-out and setting: to `CCC1(C)Cc2c(NC(=O)c3cccnc3C(F)F)cccc21` (centres unmarked) [Example I-05] belongs 3.31^[a]. Still for that read-out and setting: the result for `Cc1nn(C)c(F)c1C(=O)Nc1cccc2c1CC21CCCCC1` [Example I-10] reads 3.87^[a].

For `Cn1nc(C(F)F)c(C(=O)Nc2cccc3c2CC32CCCCC2)c1F` [Example I-18], the LogP is 4.31^[a]. Same read-out and setting: to `Cn1cc(C(=O)Nc2cccc3c2CC32CCCCC2)c(C(F)F)n1` [Example I-08] belongs 3.94^[a].

Staying with this data set, now noted: Table 2 (amines III-a); method [a]: LC-UV, acidic range, 0.1% formic acid in water and acetonitrile.
In the case of `CCC1(CC)Cc2c(N)cccc21` [III-a-2], the LogP is 2.32^[a]. Same read-out and setting: to `CCC1(C)Cc2c(N)cccc21` (centres unmarked) [III-a-6] belongs 1.82^[a].

`CC1Cc2c(N)cccc21` (centres unmarked) [III-a-3]: the LogP was 0.87^[a].

Regarding `Nc1cccc2c1CC21CCCC1` [III-a-1], the LogP was 2.03^[a]. Same read-out and setting: the result for `CC(C)C1Cc2c(N)cccc21` (centres unmarked) [III-a-4] reads 1.90^[a]; that for `CC1(C)Cc2c(N)cccc21` [III-a-5], 1.36^[a]. The same measure, in the same setting: to `Nc1cccc2c1CC21CCCCC1` [III-a-7] belongs 2.37^[a]. Same read-out and setting: the result for `Nc1cccc2c1CC2c1ccccc1` (centres unmarked) [III-a-8] reads 2.20^[a].
